Measurements: publication PMC12096834, “Antimicrobial peptide plectasin recombinantly produced in Escherichia coli disintegrates cell walls of gram-positive bacteria, as proven by transmission electron and atomic force microscopy” (Journal of Bacteriology, 2025)
Read-outs that look alike come from different tables or passages of the source.

How the values were obtained:
[1] = format: physicochemical
Description: IMAC elution buffer was exchanged five times against PBS (137 mM NaCl, […], 2.7 mM KCl, and pH 7.4) with nominal 3 kDa cut-off in Amicon Ultra spin vials (Merck, Darmstadt, Germany). The buffer was exchanged discontinuously until the imidazole concentration was below 10 mM. To prevent loss in the form of precipitated plectasin, the CASPON-plectasin was diluted with PBS to a final concentration of 3.2 mg/mL.
The buffer exchanged solution was treated by digesting CASPON-plectasin, using a 1:100 (mol/mol) dilution of the CASPON enzyme per peptide at 37°C for 12 hours. To prevent caspase oxidation and to facilitate the cleavage process, dithiothreitol (DTT) was added to a final concentration of 1 mM DTT. The temperature was maintained by using an Eppendorf Thermoblock (Hamburg, Germany). The CASPON enzyme is a modification of T7AC-6H cpCasp2, which is described by Cserjan-Puschmann et al. ([28]).
The same RP-HPLC method described by Müller et al. ([24]) was employed for CASPON-plectasin/plectasin quantification. For CASPON-plectasin and plectasin, the concentrations 1, 0.5, 0.25, 0.125, and 0.0625 g/L were utilized to construct the calibration curve.
1.6 CASPON®-plectasin cleavage conditions […]
plectasin is limited to […].
Figure S5 Cleavage experiment using CASPON®-plectasin to examine the potential cleavage of plectasin. The calculated possible plectasin was based on the used CASPON®-plectasin mass (4 g/L), assuming no losses and employing stoichiometric principles.
The temperature and CASPONT® enzyme ratio (C. R.) were varied for the cleavage process. […]
the highest achievable plectasin concentration was 1.6 g/L. This outcome is consistent with the findings of a previous study (Mygind et al. 2005), which postulated that the solubility maximum of plectasin is approximately 1.6 g/L. However, an increase in DTT beyond this concentration […]
(1 picture or pasted object on this page, not shown here)

[2] = published findings; 59 (Mygind et al. 2005); cited from earlier work
Enterococcus faecalis = assay: TEM quantification of cells with visible damage; format: cell-based
Description: (§1) Suspensions of gram-positive bacteria were prepared by taking bacterial colonies out of overnight grown agar plates and resuspending them in MHB. The suspension was set to an OD625 extinction of 0.15–0.20 corresponding to a bacterial cell density of approximately 2 × 10^8 CFU/mL. Then, 3 × 1 mL of suspension was transferred into a 2-mL reaction tube and mixed with either plectasin, CASPON-plectasin, or PBS buffer to obtain volume conditions. The concentration for plectasin was 4 x MIC, and CASPON-plectasin was of the same molar quantity as plectasin. After incubation, the bacterial suspensions were washed with PBS three times, using mild centrifugation conditions for each wash cycle (3,000 g, 15 minutes) to avoid cell damage. Prior to sample preparation, mesh copper grids were pretreated with pioloform film and a thin carbon layer. Additionally, the grids were plasma-cleaned for 10 seconds. All samples were prepared by a negative staining procedure. Sample droplets were placed on copper grids for 10 minutes. Afterward, the grids were placed on a 2% glutaraldehyde in 0.1 M phosphate buffer, washed three times with HQ water, and stained with 1% uranyl acetate for 30 seconds. Grids were then analyzed in the TEM FEI Tecnai G^2 200 kV (Thermo Fisher Scientific, Waltham, MA) under high vacuum with 160 kV. For quantification, each condition (untreated, plectasin-treated, and CASPON-plectasin-treated) and each bacterial strain (the four mentioned above) were analyzed using two independent grid squares per biological duplicate, thus yielding a total of four grid squares per condition. Grid squares comprising ≥11 cells were selected for analysis, and the cells were counted and categorized as “no visible damage” or “visible damage”. Percentages and standard deviations were subsequently calculated for each condition. An example of counting the cells can be found in the supplementary material (Fig. S2).

Streptococcus pneumoniae = assay: TEM quantification of cells with visible damage; format: cell-based
Description: as §1

Listeria monocytogenes = assay: TEM quantification of cells with visible damage; format: cell-based
Description: as §1

Staphylococcus aureus = assay: TEM quantification of cells with visible damage; format: cell-based
Description: as §1

With `CC[C@H](C)[C@@H]1NC(=O)[C@H](CO)NC(=O)[C@H](CCCCN)NC(=O)[C@@H]2CSSC[C@@H](C(=O)N[C@@H](Cc3ccc(O)cc3)C(=O)O)NC(=O)[C@H](CCCCN)NC(=O)[C@@H]3CSSC[C@H](NC(=O)[C@H](CCC(N)=O)NC(=O)[C@H](CCSC)NC(=O)[C@H](CC(=O)O)NC(=O)[C@H](CC(=O)O)NC(=O)[C@H](CCC(=O)O)NC(=O)[C@H](CC(=O)O)NC(=O)[C@H](Cc4c[nH]c5ccccc45)NC(=O)[C@@H]4CCCN4C(=O)CNC(=O)[C@H](CC(N)=O)NC(=O)[C@@H](NC(=O)CNC(=O)[C@H](Cc4ccccc4)NC(=O)CN)CSSC[C@H](NC(=O)[C@H](Cc4ccc(O)cc4)NC(=O)CNC(=O)CNC(=O)[C@H](CCCCN)NC(=O)[C@H](Cc4ccc(O)cc4)NC(=O)CNC(=O)[C@H](CCCCN)NC1=O)C(=O)N[C@@H](C)C(=O)N[C@@H](CCCCN)C(=O)NCC(=O)NCC(=O)N[C@@H](Cc1ccccc1)C(=O)N[C@@H](C(C)C)C(=O)N3)C(=O)N[C@@H](Cc1c[nH]cn1)C(=O)N[C@@H](CC(N)=O)C(=O)N[C@@H](Cc1c[nH]cn1)C(=O)N2` [Plectasin, plectasin] the “highest achievable plectasin concentration after CASPON-tag cleavage” value ([1]; any selected cleavage condition (temperature and CASPON enzyme ratio varied), without DTT, from 4 g/L CASPON-plectasin, preliminary experiments, Fig. S5) was 1.5 g/L, the solubility of plectasin ([1]; in the CASPON enzyme-based tag removal step (PBS pH 7.4, 37°C)) was ~ 1.6 g/L and the “highest achievable plectasin concentration after CASPON-tag cleavage” value ([1]; with 1 mM DTT as supporting agent, Fig. S6) was 1.6 g/L. The “maximum solubility of plectasin” value [2] was ~ 1.6 g/L, the “No visible damage (%)” value (Enterococcus faecalis; Grid Square 1) was 29.41% and the “Visible damage (%)” value (Enterococcus faecalis; Grid Square 1) was 70.59%. For the same compound, the “No visible damage (%)” value (Enterococcus faecalis; Grid Square 2) was 28.57%, the “Visible damage (%)” value (Enterococcus faecalis; Grid Square 2) was 71.43% and the “No visible damage (%)” value (Enterococcus faecalis; Grid Square 3) was 21.05%. For the same compound, the “Visible damage (%)” value (Enterococcus faecalis; Grid Square 3) was 78.95%, the “No visible damage (%)” value (Enterococcus faecalis; Grid Square 4) was 27.78% and the “Visible damage (%)” value (Enterococcus faecalis; Grid Square 4) was 72.22%. For the same compound, the “cells with visible damage” value (Enterococcus faecalis; negative staining, plectasin 4 x MIC, CASPON-plectasin same molar quantity, mean ± SD of four grid squares (two biological replicates), untreated 4.07, SD) was 73.30% ± 3.31%, the “cells with no visible damage” value (Enterococcus faecalis; negative staining, plectasin 4 x MIC, CASPON-plectasin same molar quantity, mean ± SD of four grid squares, untreated 95.93% ± 2.41%) was 26.70% and the “No visible damage (%)” value (Streptococcus pneumoniae; Grid Square 1) was 11.11%. The “Visible damage (%)” value (Streptococcus pneumoniae; Grid Square 1) was 88.89%, the “No visible damage (%)” value (Streptococcus pneumoniae; Grid Square 2) was 16.22% and the “Visible damage (%)” value (Streptococcus pneumoniae; Grid Square 2) was 83.78%. The “No visible damage (%)” value (Streptococcus pneumoniae; Grid Square 3) was 13.33%, the “Visible damage (%)” value (Streptococcus pneumoniae; Grid Square 3) was 86.67% and the “No visible damage (%)” value (Streptococcus pneumoniae; Grid Square 4) was 8.33%. The “Visible damage (%)” value (Streptococcus pneumoniae; Grid Square 4) was 91.67%, the “cells with visible damage” value (Streptococcus pneumoniae; negative staining, plectasin 4 x MIC, CASPON-plectasin same molar quantity, mean ± SD of four grid squares (two biological replicates), untreated 15.20, SD) was 87.75% ± 2.90% and the “cells with no visible damage” value (Streptococcus pneumoniae; negative staining, plectasin 4 x MIC, CASPON-plectasin same molar quantity, mean ± SD of four grid squares, untreated 84.80% ± 3.71%) was 12.25%. The “No visible damage (%)” value (Listeria monocytogenes; Grid Square 1) was 9.09%, the “Visible damage (%)” value (Listeria monocytogenes; Grid Square 1) was 90.91% and the “No visible damage (%)” value (Listeria monocytogenes; Grid Square 2) was 34.48%. The “Visible damage (%)” value (Listeria monocytogenes; Grid Square 2) was 65.52%, the “No visible damage (%)” value (Listeria monocytogenes; Grid Square 3) was 18.18% and the “Visible damage (%)” value (Listeria monocytogenes; Grid Square 3) was 81.82%. The “No visible damage (%)” value (Listeria monocytogenes; Grid Square 4) was 18.75%, the “Visible damage (%)” value (Listeria monocytogenes; Grid Square 4) was 81.25% and the “cells with visible damage” value (Listeria monocytogenes; negative staining, plectasin 4 x MIC, CASPON-plectasin same molar quantity, mean ± SD of four grid squares (two biological replicates), untreated 6.97, SD) was 79.87% ± 9.13%. For the same compound, the “cells with no visible damage” value (Listeria monocytogenes; negative staining, plectasin 4 x MIC, CASPON-plectasin same molar quantity, mean ± SD of four grid squares, untreated 93.03% ± 4.81%) was 20.13%, the “No visible damage (%)” value (Staphylococcus aureus; Grid Square 1) was 7.69% and the “Visible damage (%)” value (Staphylococcus aureus; Grid Square 1) was 92.31%. The “No visible damage (%)” value (Staphylococcus aureus; Grid Square 2) was 16.67%, the “Visible damage (%)” value (Staphylococcus aureus; Grid Square 2) was 83.33% and the “No visible damage (%)” value (Staphylococcus aureus; Grid Square 3) was 5.88%. The “Visible damage (%)” value (Staphylococcus aureus; Grid Square 3) was 94.12%, the “No visible damage (%)” value (Staphylococcus aureus; Grid Square 4) was 11.76% and the “Visible damage (%)” value (Staphylococcus aureus; Grid Square 4) was 88.24%. For the same compound, the “cells with visible damage” value (Staphylococcus aureus; negative staining, plectasin 4 x MIC, CASPON-plectasin same molar quantity, mean ± SD of four grid squares (two biological replicates), untreated 10.10, SD) was 89.50% ± 4.15% and the “cells with no visible damage” value (Staphylococcus aureus; negative staining, plectasin 4 x MIC, CASPON-plectasin same molar quantity, mean ± SD of four grid squares, untreated 89.90% ± 4.88%) was 10.50%.
